Holding throughout (experiment): SelectScreen Kinase Profiling, single point inhibition and IC50 for off-target kinases
Assay type in all cases: biochemical

Experiment [1] has as its target off-target kinases (Homo sapiens, UniProt P10721, D820E). The note with it: KIT D820E, mutant y, LanthaScreen Binding.
In experiment [2] the target is off-target kinases (Homo sapiens, UniProt P37023). The note with it: ACVRL1 (ALK1), LanthaScreen Binding. On the technique in general: In TR-FRET formats the signal depends on donor and acceptor labels being close together.
Sequence of off-target kinases (Homo sapiens, UniProt P37023) (P37023 22-503): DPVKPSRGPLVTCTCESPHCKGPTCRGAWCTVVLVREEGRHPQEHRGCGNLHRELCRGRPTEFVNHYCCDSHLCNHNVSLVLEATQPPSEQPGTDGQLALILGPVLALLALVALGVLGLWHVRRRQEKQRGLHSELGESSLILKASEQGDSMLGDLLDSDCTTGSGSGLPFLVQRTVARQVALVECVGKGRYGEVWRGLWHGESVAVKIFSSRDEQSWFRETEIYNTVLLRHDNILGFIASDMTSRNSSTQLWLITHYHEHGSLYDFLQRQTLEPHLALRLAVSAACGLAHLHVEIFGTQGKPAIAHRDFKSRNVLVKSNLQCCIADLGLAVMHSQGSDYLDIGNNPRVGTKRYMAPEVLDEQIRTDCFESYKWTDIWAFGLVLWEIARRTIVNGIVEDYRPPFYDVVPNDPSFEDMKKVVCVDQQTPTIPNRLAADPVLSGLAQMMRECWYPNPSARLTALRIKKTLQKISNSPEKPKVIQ
Experiment [3] addresses off-target kinases (Homo sapiens, UniProt P42345). The note with it: FRAP1 (mTOR), ZLYTE, ATP Km app.
Experiment [4] addresses off-target kinases (Homo sapiens, UniProt Q14680). The note with it: MELK, ZLYTE, ATP Km app.
The target of experiment [5] is T1, off-target kinases (Homo sapiens, UniProt Q99683).
T1 sequence (Q99683 1-1374): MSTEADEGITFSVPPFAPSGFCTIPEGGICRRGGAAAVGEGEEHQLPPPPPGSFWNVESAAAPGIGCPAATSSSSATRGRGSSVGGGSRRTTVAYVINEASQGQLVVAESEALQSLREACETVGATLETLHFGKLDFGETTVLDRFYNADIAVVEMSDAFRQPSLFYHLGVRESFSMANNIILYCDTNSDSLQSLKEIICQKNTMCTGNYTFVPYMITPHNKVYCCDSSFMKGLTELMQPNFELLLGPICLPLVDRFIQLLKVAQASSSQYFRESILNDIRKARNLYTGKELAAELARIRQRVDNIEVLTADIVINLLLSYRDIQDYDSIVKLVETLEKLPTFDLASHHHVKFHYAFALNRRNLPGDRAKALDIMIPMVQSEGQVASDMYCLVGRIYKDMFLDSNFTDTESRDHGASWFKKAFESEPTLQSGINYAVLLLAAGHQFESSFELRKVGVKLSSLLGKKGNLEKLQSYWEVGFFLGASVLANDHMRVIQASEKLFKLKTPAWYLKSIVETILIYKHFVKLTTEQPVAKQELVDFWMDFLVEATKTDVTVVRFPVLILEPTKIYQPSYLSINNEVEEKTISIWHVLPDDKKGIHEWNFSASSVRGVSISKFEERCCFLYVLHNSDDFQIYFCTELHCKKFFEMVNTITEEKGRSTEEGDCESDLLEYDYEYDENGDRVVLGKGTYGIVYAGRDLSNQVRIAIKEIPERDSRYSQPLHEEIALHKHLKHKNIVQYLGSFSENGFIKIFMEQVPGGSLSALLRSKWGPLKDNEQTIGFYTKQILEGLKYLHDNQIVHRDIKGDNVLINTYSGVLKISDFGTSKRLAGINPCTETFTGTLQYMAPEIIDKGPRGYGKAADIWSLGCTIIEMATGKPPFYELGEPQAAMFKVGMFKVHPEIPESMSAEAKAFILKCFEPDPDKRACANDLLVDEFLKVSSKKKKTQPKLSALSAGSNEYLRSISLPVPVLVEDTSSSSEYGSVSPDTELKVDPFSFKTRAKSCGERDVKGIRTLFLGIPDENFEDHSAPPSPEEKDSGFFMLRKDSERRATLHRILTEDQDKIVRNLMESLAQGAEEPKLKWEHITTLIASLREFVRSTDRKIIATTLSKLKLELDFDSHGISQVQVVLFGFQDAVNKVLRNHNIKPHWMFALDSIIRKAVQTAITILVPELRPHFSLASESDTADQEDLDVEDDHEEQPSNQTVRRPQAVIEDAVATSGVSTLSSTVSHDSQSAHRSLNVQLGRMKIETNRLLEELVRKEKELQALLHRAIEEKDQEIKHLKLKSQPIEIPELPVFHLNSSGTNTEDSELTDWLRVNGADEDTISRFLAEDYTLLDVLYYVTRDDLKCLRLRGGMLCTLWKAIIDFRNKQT
The note with it: MAP3K5 (ASK1), LanthaScreen Binding.

In experiment [6] the target is off-target kinases (Homo sapiens, UniProt Q9Y243). The note with it: AKT3 (PKB gamma), ZLYTE, ATP Km app.
Sequence of off-target kinases (Homo sapiens, UniProt Q9Y243) (Q9Y243 whole entry): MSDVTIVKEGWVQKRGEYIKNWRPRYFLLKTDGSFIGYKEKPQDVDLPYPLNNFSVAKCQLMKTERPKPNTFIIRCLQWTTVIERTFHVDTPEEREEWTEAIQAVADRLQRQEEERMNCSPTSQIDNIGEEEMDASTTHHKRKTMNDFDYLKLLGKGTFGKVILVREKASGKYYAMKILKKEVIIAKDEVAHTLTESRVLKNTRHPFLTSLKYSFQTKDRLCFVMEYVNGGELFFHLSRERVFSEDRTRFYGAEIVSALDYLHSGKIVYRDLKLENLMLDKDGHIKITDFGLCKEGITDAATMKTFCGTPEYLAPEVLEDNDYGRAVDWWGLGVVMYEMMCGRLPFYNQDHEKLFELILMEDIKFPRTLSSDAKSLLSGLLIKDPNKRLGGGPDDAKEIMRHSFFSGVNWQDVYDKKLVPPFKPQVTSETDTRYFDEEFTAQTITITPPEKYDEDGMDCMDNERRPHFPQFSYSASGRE

Read-outs that look alike come from different tables or passages of the source.

Sequence of off-target kinases (Homo sapiens, UniProt Q14680) (Q14680 whole entry): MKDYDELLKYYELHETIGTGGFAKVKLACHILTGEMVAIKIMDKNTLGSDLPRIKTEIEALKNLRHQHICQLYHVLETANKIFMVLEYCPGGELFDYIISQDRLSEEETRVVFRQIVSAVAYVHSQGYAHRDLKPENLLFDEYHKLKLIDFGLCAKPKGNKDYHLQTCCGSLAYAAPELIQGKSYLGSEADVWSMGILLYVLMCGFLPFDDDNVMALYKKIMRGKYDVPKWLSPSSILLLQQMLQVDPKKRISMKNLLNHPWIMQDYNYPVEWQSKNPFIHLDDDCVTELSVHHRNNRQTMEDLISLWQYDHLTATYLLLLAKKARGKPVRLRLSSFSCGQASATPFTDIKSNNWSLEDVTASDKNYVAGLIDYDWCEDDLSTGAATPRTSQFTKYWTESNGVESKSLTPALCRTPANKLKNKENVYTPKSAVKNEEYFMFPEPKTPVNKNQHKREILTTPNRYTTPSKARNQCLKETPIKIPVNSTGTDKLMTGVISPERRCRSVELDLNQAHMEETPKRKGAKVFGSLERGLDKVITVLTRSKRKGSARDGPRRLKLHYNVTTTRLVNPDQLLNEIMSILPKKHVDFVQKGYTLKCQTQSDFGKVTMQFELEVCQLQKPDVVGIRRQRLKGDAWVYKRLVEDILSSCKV
Sequence of off-target kinases (Homo sapiens, UniProt P10721, D820E) (P10721 26-976 D820E): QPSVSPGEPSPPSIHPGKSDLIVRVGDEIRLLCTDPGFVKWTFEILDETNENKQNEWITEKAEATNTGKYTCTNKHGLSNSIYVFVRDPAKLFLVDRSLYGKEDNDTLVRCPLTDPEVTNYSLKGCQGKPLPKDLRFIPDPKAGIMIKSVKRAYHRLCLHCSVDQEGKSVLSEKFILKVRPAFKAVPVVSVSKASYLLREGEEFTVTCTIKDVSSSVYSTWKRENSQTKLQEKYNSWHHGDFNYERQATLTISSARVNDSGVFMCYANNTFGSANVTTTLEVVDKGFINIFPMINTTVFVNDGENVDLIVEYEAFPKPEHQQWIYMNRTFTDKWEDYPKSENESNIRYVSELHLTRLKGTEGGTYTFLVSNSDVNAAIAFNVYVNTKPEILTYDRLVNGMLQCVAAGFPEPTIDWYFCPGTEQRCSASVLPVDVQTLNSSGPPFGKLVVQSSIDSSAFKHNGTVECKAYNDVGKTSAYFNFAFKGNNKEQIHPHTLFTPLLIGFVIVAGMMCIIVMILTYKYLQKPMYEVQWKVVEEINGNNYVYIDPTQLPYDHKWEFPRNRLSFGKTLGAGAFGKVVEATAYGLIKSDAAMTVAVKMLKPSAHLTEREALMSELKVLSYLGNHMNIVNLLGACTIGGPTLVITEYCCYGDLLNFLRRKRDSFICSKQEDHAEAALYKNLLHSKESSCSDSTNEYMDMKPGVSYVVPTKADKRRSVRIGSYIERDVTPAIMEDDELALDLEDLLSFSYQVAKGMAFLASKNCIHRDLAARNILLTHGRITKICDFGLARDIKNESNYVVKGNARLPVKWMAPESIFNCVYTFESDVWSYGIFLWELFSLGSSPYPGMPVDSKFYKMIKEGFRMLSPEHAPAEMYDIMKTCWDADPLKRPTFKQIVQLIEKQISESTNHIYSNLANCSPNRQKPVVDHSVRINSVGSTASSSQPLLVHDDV

For the compound `N#Cc1cc(-c2ncnc(Nc3ccc(N4CCN(C5COC5)CC4)cc3)n2)ccc1OC1CCOCC1` [Compound 1, 5-(4-((4-(4-(oxetan-3-yl)piperazin-1-yl)phenyl)amino)-1,3,5-triazin-2-yl)-2-((tetrahydro-2H-pyran-4-yl)oxy)benzonitrile], the inhibition (usually the drop in the measured response relative to a control, in per cent) at off-target kinases [1] (read-out: % Inhibition 1) was 18%; on off-target kinases [1] (read-out: % Inhibition 2), 19%; at off-target kinases [1] (read-out: % Inhibition Avg) it was 18%; on off-target kinases [2] (read-out: % Inhibition 1) it was 33%; at off-target kinases [2] (read-out: % Inhibition 2), 38%; at off-target kinases [2] (read-out: % Inhibition Avg), 35%. Moreover, the inhibition at off-target kinases [3] (read-out: % Inhibition 1) was 2%; at off-target kinases [3] (read-out: % Inhibition 2), 12%; at off-target kinases [3] (read-out: % Inhibition Avg) it was 7%; on off-target kinases [4] (read-out: % Inhibition 1), 25%; at off-target kinases [4] (read-out: % Inhibition 2), 22%; at off-target kinases [4] (read-out: % Inhibition Avg), 23%. Besides, the inhibition on off-target kinases [5] (read-out: % Inhibition 1) stood at 7%; on off-target kinases [5] (read-out: % Inhibition 2), 8%; on off-target kinases [5] (read-out: % Inhibition Avg), 7%; at off-target kinases [6] (read-out: % Inhibition 1), 3%; at off-target kinases [6] (read-out: % Inhibition 2), 1%; on off-target kinases [6] (read-out: % Inhibition Avg) it was 2%.

The record behind these values is patent publication US11572590B2, “Methods for evaluating tumor cell spheroids using 3D microfluidic cell culture device” (Dana-Farber Cancer Institute, Inc., priority 2017, dated 2023).
